From patent publication US12637448B2, “Tricyclic compounds and use thereof” (HELIOEAST PHARMACEUTICAL CO., LTD, priority 2020, dated 2026)

Key:
[1] = target: T1, S1PR1 (Homo sapiens, UniProt P21453); test: In vitro S1PR1 agonistic activity (PathHunter cell line, chemiluminescence); assay type: cell-based; details: for Emax: % activity relative to maximum control ligand; for EC50: agonist mode, 90-180 minutes at 37° C.
T1 construct: expressed in transfected cells
Description: Test Embodiment 1: In Vitro Evaluation of the Agonistic Activity of the Compounds of the Present Disclosure on S1PR1
Experimental Objective: To Detect the Agonistic Activity of Compounds on S1PR1
• 1. A PathHunter cell line was thawed according to standard procedures; • 2. the cells were inoculated in a 20 μL 384-well microplate and incubated at 37° C. for appropriate time. II. Agonist • 1. For agonist determination, cells were incubated with samples to be tested to induce a reaction; • 2. a storage solution to be tested was 5-fold diluted into a buffer; • 3. 5 μL of the 5-fold dilution was added to the cells and incubated at 37° C. for 90-180 minutes. The vehicle concentration was 1%. III. Signal Detection • 1. 12.5 μL or 15 μL of PathHunter detection reagent at a volume ratio of 50% was added at a time, and then incubated at room temperature for 1 hour to generate a detection signal; • 2. the microplate was read with a PerkinElmer Envision™ instrument for chemiluminescent signal detection. IV. Data Analysis • 1. Activity analysis of the compound was carried out by using CBIS data analysis kit (ChemInnovation, CA); • 2. Calculation formula: % activity=100%×(average test sample RLU−average vehicle RLU)/(average maximum control ligand−average vehicle RLU)

[2] = Pharmacokinetic evaluation in SD rats (intravenous injection and oral administration); assay type: in vivo; details: Sprague-Dawley, plasma, SD rat, male
Description: Test Embodiment 2: Pharmacokinetic Evaluation of Compound in Rats
Experimental Objective: To Test the Pharmacokinetics of the Compound in SD Rats
Sprague Dawley rat (male, 200-300 g, 7-9 weeks old, Shanghai SLAC)
(§1) A standard protocol was used to test the pharmacokinetic characteristics of rodents after intravenous injection and oral administration of the compound. In the experiment, the candidate compound was prepared into a clear solution, and administrated to rats by single intravenous injection and oral administration. The vehicle for intravenous injection was a 5:95 DMSO and 10% hydroxypropyl β-cyclodextrin aqueous solution, and the vehicle for oral administration was a 0.5% w/v methylcellulose and 0.2% w/v tween 80 aqueous solution. Whole blood samples within 24 hours were collected, centrifuged at 3000 g for 15 minutes, and the supernatant was separated to obtain plasma samples. Four times the volume of acetonitrile solution containing internal standard was added thereto to precipitate protein. The mixture was centrifuged, and the supernatant was taken, and an equal volume of water was added thereto. Then the mixture was centrifuged and the supernatant was taken for injection. The blood drug concentration was quantitatively analyzed by LC-MS/MS analysis method, and pharmacokinetic parameters, such as peak concentration, clearance rate, tissue distribution, half-life, area under the drug-time curve and bioavailability, were calculated.

[3] = Pharmacokinetic evaluation in CD-1 mice (intravenous injection and oral administration); assay type: in vivo; details: mouse, male, plasma
Description: Test Embodiment 3: Pharmacokinetic Evaluation of Compound in Mice
Experimental Objective: To Test the Pharmacokinetics of the Compound in CD-1 Mice
CD-1 mice (male, 20-40 g, 6-10 weeks old, Shanghai BK)
as §1, with “The” for “A”, “two mice” for “rats”, “3200” for “3000”, “10” for “15”, “concentration, tissue distribution,” for “concentration,”, “rate,” for “rate, tissue distribution,”

T1 sequence (P21453 whole entry): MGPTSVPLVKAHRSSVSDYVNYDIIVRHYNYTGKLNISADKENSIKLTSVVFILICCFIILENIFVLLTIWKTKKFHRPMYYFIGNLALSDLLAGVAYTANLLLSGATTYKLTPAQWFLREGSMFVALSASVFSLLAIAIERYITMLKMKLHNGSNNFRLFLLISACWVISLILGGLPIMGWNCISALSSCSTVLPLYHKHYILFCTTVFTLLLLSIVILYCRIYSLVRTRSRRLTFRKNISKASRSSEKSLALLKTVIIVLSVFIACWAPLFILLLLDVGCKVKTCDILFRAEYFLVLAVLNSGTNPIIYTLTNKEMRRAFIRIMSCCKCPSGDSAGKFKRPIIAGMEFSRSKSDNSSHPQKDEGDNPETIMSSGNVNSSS

| Emax [1] [%] | EC50 [1] [nM] | Structure (SMILES) | further results |
| --- | --- | --- | --- |
| 99.3 | 0.134 | CC(C)Oc1ncc(-c2nc(-c3cccc4c3CCC43CC(=O)N(CCO)C3)no2)cc1C#N (centres unmarked) [Compound 1] | AUC(0-t) ([2]; PO 3.0 mg/kg, read-out: Area under the drug-time curve AUC0-last PO): 35.5 µM·h; half-life ([2]; PO 3.0 mg/kg, read-out: Half-life T1/2 (PO) (converted)): 7.22 h; clearance ([2]; intravenous 1.0 mg/kg / oral 3.0 mg/kg, read-out: Clearance rate CL): 1.66 mL/min/kg; Vd ([2]; intravenous 1.0 mg/kg / oral 3.0 mg/kg, read-out: Tissue distribution Vdss): 1.18 L/kg; bioavailability ([2]; intravenous 1.0 mg/kg, oral 3.0 mg/kg, read-out: Bioavailability F): 71.9%; Cmax ([2]; intravenous 1.0 mg/kg / oral 3.0 mg/kg, read-out: Peak concentration Cmax): 3100 ng/mL; Cmax ([3]; intravenous 0.5 mg/kg / oral 2.0 mg/kg, read-out: Peak concentration Cmax): 2830 ng/mL; AUC(0-t) ([3]; PO 2.0 mg/kg, read-out: Area under the drug-time curve AUC0-last PO): 21.3 µM·h; half-life ([3]; PO 2.0 mg/kg, read-out: Half-life T1/2 (PO) (converted)): 3.5 h; clearance ([3]; intravenous 0.5 mg/kg / oral 2.0 mg/kg, read-out: Clearance rate CL): 3.42 mL/min/kg; Vd ([3]; intravenous 0.5 mg/kg / oral 2.0 mg/kg, read-out: Tissue distribution Vdss): 0.902 L/kg; bioavailability ([3]; intravenous 0.5 mg/kg, oral 2.0 mg/kg, read-out: Bioavailability F): 100% |
| 62.8 | 4.46 | CC(C)Oc1ncc(-c2nc(-c3cccc4c3CCC43CC(=O)N(CCO)C3)no2)cc1Br (centres unmarked) [Compound 3] |  |
| 67.6 | 20.9 | CC(C)Oc1ncc(-c2nsc(-c3cccc4c3CCC43CC(=O)N(CCO)C3)n2)cc1C#N (centres unmarked) [Compound 4] |  |
| 63.5 | 24.3 | CC(C)Oc1ncc(-c2ncc(-c3cccc4c3CCC43CC(=O)N(CCO)C3)o2)cc1C#N (centres unmarked) [Compound 5] |  |
| 78.5 | 7.1 | CC(C)Oc1ncc(-c2ncc(-c3cccc4c3CCC43CC(=O)N(CCO)C3)cn2)cc1C#N (centres unmarked) [Compound 6] |  |
| 88.1 | 2.84 | CC(C)Oc1ncc(-c2ncc(-c3cccc4c3CCC43CC(=O)N(CCO)C3)s2)cc1C#N (centres unmarked) [Compound 7] |  |
| 110 | 1.25 | CC(C)Oc1ncc(-c2nc(-c3cccc4c3CCC43CC(=O)N(CC(=O)O)C3)no2)cc1C#N (centres unmarked) [Compound 8] |  |
| 104 | 0.613 | CC(C)Oc1ncc(-c2nc(-c3cccc4c3CCC43CC(=O)N(CCC(=O)O)C3)no2)cc1C#N (centres unmarked) [Compound 9] |  |
| 92 | 0.474 | CC(C)Oc1ncc(-c2nc(-c3cccc4c3CCC43CCN(C4CC(C(=O)O)C4)C3)no2)cc1C#N (centres unmarked) [Compound 10] |  |
| 104 | 6.12 | CC(C)Oc1ncc(-c2nnc(-c3cccc4c3CCC43CC(=O)N(CCO)C3)s2)cc1C#N (centres unmarked) [Compound 11] |  |
